According to publication PMC8122671, “New Succinimides with Potent Anticancer Activity: Synthesis, Activation of Stress Signaling Pathways and Characterization of Apoptosis in Leukemia and Cervical Cancer Cells” (International Journal of Molecular Sciences, 2021):
Entries after “also recorded” stand apart in the source; their conditions may differ.

Columns and labels:
[1] = tested on: MOLT-4 (Human T-Lymphoid Cell Line); assay: MTT cytotoxicity assay, MOLT-4; assay type: cell-based; settings: MOLT-4, 48 h incubation, average (SD) of three experiments, read-out: IC50 MOLT-4
[2] = tested on: plasmid DNA (pcDNA3.1HisC); assay: DNA-cleavage protection assay (BamHI digestion of plasmid DNA); assay type: biochemical; settings: 100 µM, overnight 37 °C, then BamHI 3 h
Description: A DNA-cleavage protection assay has been successfully used for the identification of compounds that bind DNA either covalently or noncovalently. Such binding may result in DNA being less susceptible to enzymatic cleavage. […] It was also reported that naphtalenoimides or indolomaleimides intercalate into DNA [13, 14]. […] In CD studies, a synthetic 23-nt duplex DNA or bovine thymus DNA was incubated with compound Ic or daunorubicin (reference compound). […] Using a DNA-cleavage protection assay, we investigated whether selected compounds 2c, 2d, and 2f and 3c, 3d, and 3f interact with a plasmid DNA, resulting in increased resistance to endonucleolytic cleavage. Plasmid DNA (pcDNA3.1HisC) containing a single BamHI cleavage site was incubated with test compounds and subsequently digested with BamH1 restriction endonuclease. Daunorubicin (a strong DNA-intercalating agent) was used as a reference compound. Non-digested plasmid DNA existed predominantly in the circular form; however, the superhelical and linear forms were also detected (Figure 5, lane 1). […] This observation can be explained by the higher lipophilicity of 3c, 3d, and 3f compared to 2c, 2d, and 2f, which may facilitate their more efficient binding to DNA.
First, 0.5 μg of plasmid DNA (pcDNAHisC, total length 5.5 kbp) containing a unique BamHI restriction site was dissolved in a 1× BamHI reaction buffer and incubated overnight at 37 °C with the test compounds or daunorubicin. Daunorubicin, a strong intercalating agent, was used as a positive control. The concentration of the test compounds and daunorubicin samples was 100 µM. In the next step, the reaction mixtures were digested with BamHI restriction endonuclease (2 U/μL) for 3 h at 37 °C. The total reaction volume was 10 μL. Products of the reaction were subjected to the 1% agarose gel electrophoresis in TBE buffer. The gel was stained with ethidium bromide, and DNA fragments were visualized under a UV lamp (GBox, Syngene).

[3] = tested on: HeLa (human cervix carcinoma) cells; assay: MTT cytotoxicity assay, HeLa; assay type: cell-based; settings: 48 h incubation, average (SD) of three experiments, read-out: IC50 HeLa
[4] = tested on: HUVEC (normal endothelial) cells; assay: MTT cytotoxicity assay, HUVEC; assay type: cell-based; settings: Homo sapiens, 48 h incubation, average (SD) of three experiments, read-out: IC50 HUVEC
[5] = tested on: caspase 3/7 in K562 cells; assay: Caspase-3/7 activity assay (Apo-ONE) in K562 cells; assay type: cell-based, human; settings: K562, 18 h, test compound at 5xIC50, staurosporine 1 μM; vs 1% DMSO
Description: After incubation for 18 h, K562 cells were lysed and the activity of caspase 3/7 was measured using a profluorescent peptide substrate.
First, 20 × 10^3 K562 cells were seeded on each well of a 96-well plate in RPMI 1640 medium supplemented with 10% fetal calf serum and antibiotics. Cells were grown for 24 h at 37 °C and 5% CO2. Test dicarboximides were dissolved in DMSO and added to cell culture to the final concentration of 5 × IC50. […] Cells were exposed to test compounds for 18 h at 37 °C and 5% CO2. Subsequently, the activity of caspase 3 and 7 was measured by Apo-ONE® Homogeneous Caspase-3/7 Assay (Promega, Madison, WI, USA) according to the manufacturer’s instructions. Briefly, the cells were lysed and incubated for 1.5 h with a profluorescent substrate for caspase 3 and 7. Next, the fluorescence was read at an excitation wavelength of 485 nm and emission of 520 nm with a FLUOStar Omega microplate reader (BMG-Labtech, Offenburg, Germany).

Structure (SMILES): CCC12C(=O)C(CC)(C(c3ccccc3)=C1c1ccccc1)C1C(=O)N(CC(O)CNC(C)(C)C)C(=O)C12 (centres unmarked) [2c, 4-[3-(tert-butylamino)-2-hydroxypropyl]-1,7-diethyl-8,9-diphenyl-4-azatricyclo [5.2.1.0^2,6]dec-8-ene-3,5,10-trione]
- IC50 [1]: 2500 nM
- protection of plasmid DNA from BamHI digestion (circular DNA left) [2]: the circular form was also detected
- IC50 [3]: 3200 nM
- IC50 [4]: 3300 nM
- activity of caspase 3/7 [5]: over eight-fold increase in caspase activity; also recorded: activated caspase 3 and 7

Structure (SMILES): CCN(CC)CC(O)CN1C(=O)C2C(C1=O)C1(CC)C(=O)C2(CC)C(c2ccccc2)=C1c1ccccc1 (centres unmarked) [2d, 4-[3-(diethylamino)-2-hydroxypropyl]-1,7-diethyl-8,9-diphenyl-4-azatricyclo [5.2.1.0^2,6]dec-8-ene-3,5,10-trione]
- IC50 [1]: 14000 nM
- protection of plasmid DNA from BamHI digestion (circular DNA left) [2]: the circular form was also detected
- IC50 [3]: 18000 nM
- IC50 [4]: 3600 nM
- activity of caspase 3/7 [5]: over eight-fold increase in caspase activity; also recorded: activated caspase 3 and 7

Structure (SMILES): CC(C)(C)NCC(O)CN1C(=O)C2C(C1=O)C1(c3ccccc3)CC2(c2ccccc2)C(c2ccccc2)=C1c1ccccc1 (centres unmarked) [3c, 4-[3-(tert-butylamino)-2-hydroxypropyl]-1,7,8,9-tetraphenyl-4-azatricyclo[5.2.1.0^2,6]dec-8-ene-3,5-dione]
- IC50 [1]: 2600 nM
- protection of plasmid DNA from BamHI digestion (circular DNA left) [2]: interaction seems to be stronger
- IC50 [3]: 2000 nM
- IC50 [4]: 400 nM
- activity of caspase 3/7 [5]: activated caspase 3/7 to a lesser extent; also recorded: activated caspase 3 and 7

Structure (SMILES): CCN(CC)CC(O)CN1C(=O)C2C(C1=O)C1(c3ccccc3)CC2(c2ccccc2)C(c2ccccc2)=C1c1ccccc1 (centres unmarked) [3d, 4-[3-(diethylamino)-2-hydroxypropyl]-1,7,8,9-tetraphenyl-4-azatricyclo[5.2.1.0^2,6]dec-8-ene-3,5-dione]
- IC50 [1]: 2200 nM
- protection of plasmid DNA from BamHI digestion (circular DNA left) [2]: interaction seems to be stronger
- IC50 [3]: 1900 nM
- IC50 [4]: 300 nM
- activity of caspase 3/7 [5]: activated caspase 3/7 to a lesser extent; also recorded: activated caspase 3 and 7
